The values below are quoted from earlier work in patent publication US8329227B2, “Compositions for improving mental performance” (Factor Nutrition Labs, LLC, priority 2001, dated 2012).

The conditions of data set [1]: 200 micrograms in four divided doses, fifty patients; placebo thirty-six percent.
The conditions of data set [2]: high or low dose versus placebo, 203 patients.
The conditions of data set [3]: healthy volunteers aged 25-40.
For data set [4] the following is noted: PS supplementation.

For the compound `C/C=C1\[C@H]2C=C(C)C[C@]1(N)c1ccc(=O)[nH]c1C2` [huperzine A, Huperzine A], in data set [1], the “people with improvements in memory, cognitive function and behavior” value is “Fifty-eight”.

On to `CCOC(=O)C1=C[C@]2(CC)CCCN3CCc4c(n1c1ccccc41)[C@@H]32` [vinpocetine], for which the “cognitive performance and overall quality of life” value in data set [2] was “Significantly greater improvements”. Also, the “memory (Steinberg Memory Test)” value in data set [3] is on record as “significant memory improvement”. The “patients with reduced frequency or complete elimination of epileptic seizures” value (epileptic patients) is reported as “twenty of the thirty-one”. In addition, the “tolerability in clinical studies” value (human, in vivo) is given as “well tolerated”.

As to phosphatidyl serine [PS], the “improvement in learning ability and memory tasks” value in data set [4] is on record as 15%.
